# Laboratory results: PubChem BioAssay (NCI)
#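 Cultured in 96-well plates, cells were exposed to test compound for 48 hours across five concentrations. GI50: concentration for 50% inhibition of growth. TGI is the concentration that stops growth completely.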 Where a SMILES comes first, the peptide text is derived from it. [ ]: non-standard residue; d: D form. NMeY = CN[C@@H](Cc1ccc(O)cc1)C(=O)O; dNMeF = CN[C@H](Cc1ccccc1)C(=O)O; Sar = CNCC(=O)O
# Columns and labels:
# Assay in all cases: growth of human tumour cells (NCI), 48 h
# K-562 leukemia = test system: K-562 leukemia
# DU-145 prostate = test system: DU-145 prostate
# OVCAR-8 ovarian = test system: OVCAR-8 ovarian
# SN12C renal = test system: SN12C renal
# HT29 colon = test system: HT29 colon
# COLO 205 colon = test system: COLO 205 colon
# HOP-62 NSCLC = test system: HOP-62 NSCLC
# OVCAR-5 ovarian = test system: OVCAR-5 ovarian
# HOP-92 NSCLC = test system: HOP-92 NSCLC
# KM12 colon = test system: KM12 colon
SMILES,GI50 (K-562 leukemia),TGI (K-562 leukemia),GI50 (DU-145 prostate),TGI (DU-145 prostate),GI50 (OVCAR-8 ovarian),TGI (OVCAR-8 ovarian),GI50 (SN12C renal),TGI (SN12C renal),GI50 (HT29 colon),TGI (HT29 colon),GI50 (COLO 205 colon),TGI (COLO 205 colon),GI50 (HOP-62 NSCLC),TGI (HOP-62 NSCLC),GI50 (OVCAR-5 ovarian),TGI (OVCAR-5 ovarian),GI50 (HOP-92 NSCLC),TGI (HOP-92 NSCLC),GI50 (KM12 colon),TGI (KM12 colon)
CC[C@H](C)[C@@H]1NC(=O)[C@H](Cc2ccc(O)cc2)N(C)C(=O)[C@H](Cc2ccccc2)NC(=O)CN(C)C(=O)[C@@H]2CCCN2C(=O)[C@@H](Cc2ccccc2)N(C)C(=O)[C@H](CC(C)C)NC1=O (cyclo(F[NMeY]IL[dNMeF]P[Sar])),0.262 µM,31.4 µM,0.205 µM,10.9 µM,0.352 µM,12.8 µM,0.139 µM,5.79 µM,0.243 µM,7.2 µM,0.185 µM,3.3 µM,0.296 µM,5.84 µM,0.299 µM,8.09 µM,0.198 µM,4.83 µM,0.271 µM,5.48 µM
CC(=O)OC1CCC2(C)C(CCC3C4CC=C(C(C)=O)C4(C)OC(=O)CC32)C1 (stereo not given),3.35 µM,10.3 µM,2.36 µM,6.1 µM,2.13 µM,7.49 µM,3.26 µM,13.6 µM,1.6 µM,3.09 µM,1.64 µM,3.02 µM,4.06 µM,14.7 µM,2.75 µM,7.63 µM,1.74 µM,4.21 µM,9.83 µM,22.7 µM
CCOC(=O)c1ccc(Nc2sc(C(=O)c3cccc([N+](=O)[O-])c3)c(N)c2C#N)cc1,0.0375 µM,6.53 µM,0.184 µM,21.1 µM,1.4 µM,10.4 µM,0.497 µM,> 46.7 µM,0.0398 µM,3.12 µM,0.156 µM,1.59 µM,0.108 µM,6.39 µM,2.25 µM,29.6 µM,0.109 µM,28.1 µM,0.0678 µM,6.43 µM
Cc1ncc(C(=O)Nc2ccc(CN3CCN(C)CC3)c(C(F)(F)F)c2)cc1C#Cc1cnc(N)c2ncccc12,–,–,0.18 µM,2.08 µM,1.1 µM,4.86 µM,0.221 µM,1.91 µM,0.0435 µM,2.08 µM,0.0424 µM,1.61 µM,0.704 µM,11.9 µM,0.807 µM,2.81 µM,0.129 µM,1.66 µM,–,1.33 µM
Nc1c(C(=O)c2cccc(C#CCN3CCOCC3)c2)cnn1-c1ccc(F)cc1,7.91 µM,> 25 µM,> 25 µM,> 25 µM,> 25 µM,> 25 µM,> 25 µM,> 25 µM,10.9 µM,> 25 µM,7.97 µM,> 25 µM,> 25 µM,> 25 µM,> 25 µM,> 25 µM,> 13 µM,> 25 µM,8.29 µM,> 25 µM
O=C(NC(=S)NNC(=S)NNc1ccccc1)c1ccccc1,1.13 µM,> 100 µM,44.1 µM,> 100 µM,4.68 µM,> 100 µM,4.87 µM,> 100 µM,15.1 µM,> 100 µM,9.81 µM,> 100 µM,4.7 µM,> 100 µM,> 100 µM,> 100 µM,–,–,7.09 µM,> 100 µM
COc1ccc2[nH]c(=O)c(/C=C/C(=O)/C=C/c3ccc(O)c(OC)c3)cc2c1,1.35 µM,> 100 µM,1.69 µM,3.5 µM,1.52 µM,11.5 µM,1.89 µM,4.49 µM,0.777 µM,2.12 µM,1.6 µM,3.81 µM,2.03 µM,4.75 µM,1.88 µM,3.66 µM,1.84 µM,5.06 µM,1.08 µM,2.66 µM
COc1cccc(-n2ncc3c(N/N=C/c4ccc(S(C)(=O)=O)cc4)ncnc32)c1,> 6.65 µM,> 25 µM,16.4 µM,> 25 µM,6.11 µM,15.6 µM,9.88 µM,> 25 µM,3.49 µM,10.5 µM,7.64 µM,> 25 µM,5.85 µM,11.5 µM,> 25 µM,> 25 µM,7.36 µM,18.7 µM,6.29 µM,> 25 µM
Nc1c(C(=O)c2cccc(CCC3(O)CCCC3)c2)cnn1-c1ccc(F)cc1,10.1 µM,> 25 µM,> 21.1 µM,> 25 µM,11.4 µM,> 25 µM,16.2 µM,> 25 µM,18.2 µM,> 25 µM,16.6 µM,> 25 µM,> 25 µM,> 25 µM,> 25 µM,> 25 µM,2.73 µM,20.2 µM,17.1 µM,> 25 µM
N#CSCc1c(Cl)cccc1Cl,0.359 µM,16.3 µM,2.74 µM,5.71 µM,4.8 µM,> 100 µM,4.5 µM,> 100 µM,3.75 µM,> 100 µM,2.34 µM,4.97 µM,36.6 µM,> 100 µM,7.41 µM,> 100 µM,1.18 µM,> 30 µM,–,–
CC[N+]1(C)CCC(O)(c2ccccc2)C(C(=O)c2ccccc2)C1 (stereo not given),–,13.2 µM,–,44.6 µM,–,59.1 µM,–,21.6 µM,–,31.8 µM,–,36.7 µM,–,48.2 µM,–,35.5 µM,–,25.4 µM,–,39.3 µM
C#C[C@@]1(O)[C@@H](CO)O[C@@H](n2ccc3c(N)ncnc32)[C@@H]1O,0.806 µM,> 100 µM,0.563 µM,6.56 µM,1.03 µM,4.11 µM,0.798 µM,3.91 µM,0.97 µM,–,0.679 µM,2.67 µM,2.05 µM,7.91 µM,3.1 µM,8.54 µM,2.04 µM,5.56 µM,1.82 µM,10.9 µM
CCCCCCCCCCCC[n+]1ccccc1,0.415 µM,11.4 µM,2.21 µM,11.6 µM,1.03 µM,5.28 µM,1.63 µM,4.11 µM,0.381 µM,5.47 µM,0.868 µM,2.66 µM,1.9 µM,5.57 µM,1.57 µM,7.67 µM,0.958 µM,3.1 µM,1.12 µM,2.87 µM
O=Cc1ccc(Oc2c3ccccc3nc3occc23)cc1,22.6 µM,> 100 µM,17.6 µM,43.7 µM,18.3 µM,66.2 µM,7.73 µM,24.2 µM,23.1 µM,61.9 µM,21.8 µM,63 µM,14.8 µM,37.9 µM,18.6 µM,89.7 µM,–,–,8.79 µM,25.4 µM
OCCNc1ncnc2c1ncn2C1OC(CO)C(O)C1O (stereo not given),–,–,–,67.7 µM,–,> 100 µM,–,> 100 µM,–,> 100 µM,–,> 100 µM,–,> 100 µM,–,> 100 µM,–,> 100 µM,–,> 100 µM
O=C(O)C[O][Sb][O]CC(=O)O,> 100 µM,> 100 µM,> 100 µM,> 100 µM,> 100 µM,> 100 µM,> 100 µM,> 100 µM,> 100 µM,> 100 µM,–,–,> 100 µM,> 100 µM,> 100 µM,> 100 µM,> 100 µM,> 100 µM,> 100 µM,> 100 µM
C[C@]12CCC3c4ccc(O)cc4CCC3C1Cc1ccc(O)cc12 (stereo not given in full),0.794 µM,11.2 µM,11.5 µM,28.5 µM,15.8 µM,33.8 µM,11.8 µM,25.8 µM,6.13 µM,20.6 µM,12.1 µM,26 µM,–,–,14.5 µM,27.6 µM,12.7 µM,27.9 µM,3.4 µM,20.6 µM
CC1=CC2=C(C(N)=O)C(=O)OC2(C)C(c2ccccc2)C1 (stereo not given),–,> 100 µM,–,> 100 µM,–,> 100 µM,–,> 100 µM,–,> 100 µM,–,–,–,> 100 µM,–,> 100 µM,–,> 100 µM,–,> 100 µM
CC[C@H](C)[C@H](NC(=O)Nc1ccccc1)C(=O)N(C)[C@H](C[C@@H](OC(C)=O)c1nc(C(=O)N[C@@H](Cc2ccccc2)C[C@H](C)C(=O)OC)cs1)C(C)C,–,–,3.94 µM,> 100 µM,4.69 µM,> 100 µM,8.31 µM,> 100 µM,3.33 µM,> 100 µM,3.17 µM,18.2 µM,3.66 µM,> 100 µM,11.9 µM,> 100 µM,1.34 µM,62.9 µM,2.09 µM,> 100 µM
CN(C)CCNC(=O)Cn1ccc(=O)c2ccc([N+](=O)[O-])cc21,–,> 100 µM,–,> 100 µM,–,–,–,> 100 µM,–,> 100 µM,–,> 100 µM,–,> 100 µM,–,> 100 µM,–,> 100 µM,–,> 100 µM
CC(=O)OC1C/C(C)=C/CCC(C)/C=C/C2(C)CCC(C(C)(C)O)C12 (stereo not given),–,> 100 µM,–,–,–,> 100 µM,–,96.4 µM,–,> 100 µM,–,> 100 µM,–,> 100 µM,–,> 100 µM,–,51.4 µM,–,> 100 µM
